Measured values from publication PMC8119466, “A screen of FDA-approved drugs identifies inhibitors of protein tyrosine phosphatase 4A3 (PTP4A3 or PRL-3)” (Scientific Reports, 2021).
Like-named read-outs stand apart in the source and are kept apart here.

Tests used:
recombinant PRL-1 = biological target: T1, recombinant PRL-1 (Homo sapiens, UniProt Q93096); experiment: In vitro phosphatase assay (DiFMUP hydrolysis), PRL-1; type: biochemical; settings: for % Phosphatase Activity (compared to DMSO) PRL-1: FDA-approved drug screen; for IC50: DiFMUP at KM, read-out: Calculated IC50, PRL-1 phosphatase activity
T1 construct: 6xHis (N, cleaved yes); made in house; host or cells: E. coli One Shot BL21 Star
T1 sequence (Q93096 1-173): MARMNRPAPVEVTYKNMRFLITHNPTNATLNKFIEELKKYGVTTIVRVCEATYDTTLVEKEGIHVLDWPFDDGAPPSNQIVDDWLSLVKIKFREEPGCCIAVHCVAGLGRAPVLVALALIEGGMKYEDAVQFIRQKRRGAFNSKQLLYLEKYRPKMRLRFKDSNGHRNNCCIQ

SW480 cells = experiment: Annexin V staining, SW480; type: cell-based, human; settings: 100 µM Salirasib or 25 µM Candesartan, 24 and 48 hr
Procedure: (§1) HEK293T, HCT116, and SW480 cells were plated in 6 well dishes at 4 × 10^5 cell seeding density and treated with DMSO, Candesartan and Salirasib at the indicated concentrations. Cells were collected at 24 h and 48 h time points and the AnnexinV staining was performed according to the instructions from the manual (Thermo Fisher, Cat # 00-0055-56). Flow cytometry with AnnexinV-FITC conjugated antibody (Thermo Fisher, Cat # A13199) was used to determine the population of cells incorporating Annexin V and PI was used for the DNA content.

HCT116 cells [1] = experiment: Click-IT Edu cell proliferation assay, HCT116; type: cell-based, human; settings: HCT-116; 100 µM Salirasib or 25 µM Candesartan; 24 and 48 hr
Procedure: The cell proliferation assay was performed using the Click-IT Edu cell proliferation kit from (Thermo Fisher, Cat # C10419) according to the manufacturer’s protocol. Briefly, HEK293T, HCT116 and SW480 cells were plated in 6 well dishes at 4 × 10^5 cell seeding density and treated with DMSO, Candesartan and Salirasib at the indicated concentrations. Edu was added 2 h prior to collecting the cells at 24 h and 48 h time points and the assay was performed according to the instructions from the manual. Flow cytometry with AlexaFluor647 conjugated azide dye was used to determine the cellular proliferation and DAPI was used for the DNA content.

TCPTP = biological target: T2, TCPTP (Homo sapiens, UniProt P17706); experiment: PhosphataseProfiler (Eurofins) selectivity panel; type: biochemical; settings: 25µM
T2 construct: purchased Eurofins PP260

recombinant PRL-3 = biological target: T3, recombinant PRL-3 (Homo sapiens, UniProt O75365); experiment: In vitro phosphatase assay (DiFMUP hydrolysis), PRL-3; type: biochemical; settings: for % Phosphatase Activity (compared to DMSO) PRL-3: FDA-approved drug screen; for IC50: DiFMUP at KM, read-out: Calculated IC50, PRL-3 phosphatase activity; for mode of inhibition (Lineweaver-Burke analysis): versus DiFMUP substrate, reduce apparent Vmax, do not affect KM
T3 construct: 6xHis (N, cleaved yes); made in house; host or cells: E. coli One Shot BL21 Star

VHR = biological target: T4, VHR (Homo sapiens, UniProt P51452); experiment: PhosphataseProfiler (Eurofins) selectivity panel; type: biochemical; settings: 25µM
T4 construct: purchased Eurofins PP260

HEK293T cells = experiment: Annexin V staining, HEK293T; type: cell-based, human; settings: 100 µM Salirasib or 25 µM Candesartan, 24 and 48 hr
Procedure: as §1

PP2A = experiment: PhosphataseProfiler (Eurofins) selectivity panel; type: biochemical; settings: 25µM
Procedure: (§2) In 384 well plates, 2.5 μM recombinant PRL-1, PRL-2, or PRL-3 was combined with DiFUMP (Life Technologies, Cat # E12020) at the KM of each protein in reaction buffer (20 mM Tris–Cl, pH 7.5, 150 mM NaCl, 10 mM DTT) as previously reported. Briefly, protein was diluted in reaction buffer and allowed to incubate at 4 °C for 20 min to allow for full reduction of the active site. DiFMUP, drug, and protein were added, and plates were incubated for 20 min at room temperature. Fluorescence intensities were measured on a Cytation 5 plate reader (Biotek) at an EX:360 nm and EM:460 nm. Data were normalized to vehicle control and IC50 values were calculated on GraphPad Prism version 8. Inhibition selectivity for PRLs over a panel of other phosphatases was determined using PhosphataseProfiler (Eurofins, Cat # PP260).

PTPMEG = biological target: T5, PTPMEG (Homo sapiens, UniProt P29074); experiment: PhosphataseProfiler (Eurofins) selectivity panel; type: biochemical; settings: 25µM
T5 construct: purchased Eurofins PP260
Procedure: as §2

Lambda PP = biological target: T6, Lambda PP (Escherichia phage lambda, UniProt P03772); experiment: PhosphataseProfiler (Eurofins) selectivity panel; type: biochemical; settings: 25µM
T6 construct: purchased Eurofins PP260
Procedure: as §2

Yoph = biological target: T7, Yoph (Yersinia enterocolitica, UniProt P15273); experiment: PhosphataseProfiler (Eurofins) selectivity panel; type: biochemical; settings: 25µM
T7 construct: purchased Eurofins PP260
Procedure: as §2

PTPMEG2 = biological target: T8, PTPMEG2 (Homo sapiens, UniProt P43378); experiment: PhosphataseProfiler (Eurofins) selectivity panel; type: biochemical; settings: PTPMEG2, 25µM
T8 construct: purchased Eurofins PP260
Procedure: as §2

CD45 = biological target: T9, CD45 (Homo sapiens, UniProt P08575); experiment: PhosphataseProfiler (Eurofins) selectivity panel; type: biochemical; settings: CD45, 25µM
T9 construct: purchased Eurofins PP260
Procedure: as §2

PTPRM = biological target: T10, PTPRM (Homo sapiens, UniProt P28827); experiment: PhosphataseProfiler (Eurofins) selectivity panel; type: biochemical; settings: 25µM
T10 construct: purchased Eurofins PP260

HCT116 cells [2] = experiment: Annexin V staining, HCT116; type: cell-based, human; settings: HCT-116; 100 µM Salirasib or 25 µM Candesartan; 24 and 48 hr
Procedure: as §1

ACP1 (LMPTP-B) = biological target: T11, ACP1 (LMPTP-B) (Homo sapiens, UniProt P24666); experiment: PhosphataseProfiler (Eurofins) selectivity panel; type: biochemical; settings: 25µM
T11 construct: purchased Eurofins PP260
Procedure: Briefly, protein was diluted in reaction buffer and allowed to incubate at 4 °C for 20 min to allow for full reduction of the active site. DiFMUP, drug, and protein were added, and plates were incubated for 20 min at room temperature. Fluorescence intensities were measured on a Cytation 5 plate reader (Biotek) at an EX:360 nm and EM:460 nm. […] Inhibition selectivity for PRLs over a panel of other phosphatases was determined using PhosphataseProfiler (Eurofins, Cat # PP260).

[3] = listed as Candesartan Cilexetil

T3 sequence (O75365 whole entry): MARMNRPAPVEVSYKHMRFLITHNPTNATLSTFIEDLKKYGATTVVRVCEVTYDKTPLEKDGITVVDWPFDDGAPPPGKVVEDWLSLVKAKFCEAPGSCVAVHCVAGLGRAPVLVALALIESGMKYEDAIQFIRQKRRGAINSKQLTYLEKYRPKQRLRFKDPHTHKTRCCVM
T5 sequence (P29074 whole entry): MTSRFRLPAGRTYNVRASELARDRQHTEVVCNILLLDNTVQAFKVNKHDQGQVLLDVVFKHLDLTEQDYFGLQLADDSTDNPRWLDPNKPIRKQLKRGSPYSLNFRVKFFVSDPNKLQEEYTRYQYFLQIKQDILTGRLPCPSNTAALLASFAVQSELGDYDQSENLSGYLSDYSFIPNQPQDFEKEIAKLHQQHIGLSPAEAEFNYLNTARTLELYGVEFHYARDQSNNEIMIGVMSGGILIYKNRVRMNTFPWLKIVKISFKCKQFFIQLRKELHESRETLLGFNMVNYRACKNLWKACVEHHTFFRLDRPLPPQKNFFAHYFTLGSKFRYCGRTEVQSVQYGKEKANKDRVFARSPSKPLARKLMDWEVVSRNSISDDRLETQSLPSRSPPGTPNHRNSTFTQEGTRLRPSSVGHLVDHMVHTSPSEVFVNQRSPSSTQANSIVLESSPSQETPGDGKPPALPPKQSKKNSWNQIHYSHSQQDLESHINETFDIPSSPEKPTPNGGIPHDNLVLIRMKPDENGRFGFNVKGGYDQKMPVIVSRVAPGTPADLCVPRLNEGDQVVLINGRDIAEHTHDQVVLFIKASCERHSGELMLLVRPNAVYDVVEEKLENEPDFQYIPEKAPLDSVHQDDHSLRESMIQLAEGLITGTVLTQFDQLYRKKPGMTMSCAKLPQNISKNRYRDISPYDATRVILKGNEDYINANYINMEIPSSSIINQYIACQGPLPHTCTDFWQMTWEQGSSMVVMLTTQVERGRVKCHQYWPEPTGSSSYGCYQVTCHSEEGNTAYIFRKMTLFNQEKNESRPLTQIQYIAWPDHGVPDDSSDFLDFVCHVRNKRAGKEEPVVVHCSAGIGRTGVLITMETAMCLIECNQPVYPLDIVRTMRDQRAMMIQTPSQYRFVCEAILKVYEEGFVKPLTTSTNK
T11 sequence (P24666 1-158 isoform P24666-2): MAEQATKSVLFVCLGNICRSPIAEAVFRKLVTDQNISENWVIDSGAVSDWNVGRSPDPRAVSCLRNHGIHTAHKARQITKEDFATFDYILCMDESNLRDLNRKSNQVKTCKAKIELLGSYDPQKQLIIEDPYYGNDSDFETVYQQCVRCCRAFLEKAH
T2 sequence (P17706 whole entry): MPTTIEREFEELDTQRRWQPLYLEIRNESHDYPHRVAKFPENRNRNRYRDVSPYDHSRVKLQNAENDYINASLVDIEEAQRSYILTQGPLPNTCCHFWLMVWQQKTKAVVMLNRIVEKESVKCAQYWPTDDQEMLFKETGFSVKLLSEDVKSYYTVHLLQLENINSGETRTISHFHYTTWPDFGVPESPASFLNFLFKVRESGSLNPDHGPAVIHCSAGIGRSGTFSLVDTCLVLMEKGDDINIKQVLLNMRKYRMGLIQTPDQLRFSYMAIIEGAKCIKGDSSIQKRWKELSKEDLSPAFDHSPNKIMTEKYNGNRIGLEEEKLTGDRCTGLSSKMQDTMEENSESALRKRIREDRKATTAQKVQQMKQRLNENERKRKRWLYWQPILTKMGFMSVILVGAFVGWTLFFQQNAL
T10 sequence (P28827 21-1452): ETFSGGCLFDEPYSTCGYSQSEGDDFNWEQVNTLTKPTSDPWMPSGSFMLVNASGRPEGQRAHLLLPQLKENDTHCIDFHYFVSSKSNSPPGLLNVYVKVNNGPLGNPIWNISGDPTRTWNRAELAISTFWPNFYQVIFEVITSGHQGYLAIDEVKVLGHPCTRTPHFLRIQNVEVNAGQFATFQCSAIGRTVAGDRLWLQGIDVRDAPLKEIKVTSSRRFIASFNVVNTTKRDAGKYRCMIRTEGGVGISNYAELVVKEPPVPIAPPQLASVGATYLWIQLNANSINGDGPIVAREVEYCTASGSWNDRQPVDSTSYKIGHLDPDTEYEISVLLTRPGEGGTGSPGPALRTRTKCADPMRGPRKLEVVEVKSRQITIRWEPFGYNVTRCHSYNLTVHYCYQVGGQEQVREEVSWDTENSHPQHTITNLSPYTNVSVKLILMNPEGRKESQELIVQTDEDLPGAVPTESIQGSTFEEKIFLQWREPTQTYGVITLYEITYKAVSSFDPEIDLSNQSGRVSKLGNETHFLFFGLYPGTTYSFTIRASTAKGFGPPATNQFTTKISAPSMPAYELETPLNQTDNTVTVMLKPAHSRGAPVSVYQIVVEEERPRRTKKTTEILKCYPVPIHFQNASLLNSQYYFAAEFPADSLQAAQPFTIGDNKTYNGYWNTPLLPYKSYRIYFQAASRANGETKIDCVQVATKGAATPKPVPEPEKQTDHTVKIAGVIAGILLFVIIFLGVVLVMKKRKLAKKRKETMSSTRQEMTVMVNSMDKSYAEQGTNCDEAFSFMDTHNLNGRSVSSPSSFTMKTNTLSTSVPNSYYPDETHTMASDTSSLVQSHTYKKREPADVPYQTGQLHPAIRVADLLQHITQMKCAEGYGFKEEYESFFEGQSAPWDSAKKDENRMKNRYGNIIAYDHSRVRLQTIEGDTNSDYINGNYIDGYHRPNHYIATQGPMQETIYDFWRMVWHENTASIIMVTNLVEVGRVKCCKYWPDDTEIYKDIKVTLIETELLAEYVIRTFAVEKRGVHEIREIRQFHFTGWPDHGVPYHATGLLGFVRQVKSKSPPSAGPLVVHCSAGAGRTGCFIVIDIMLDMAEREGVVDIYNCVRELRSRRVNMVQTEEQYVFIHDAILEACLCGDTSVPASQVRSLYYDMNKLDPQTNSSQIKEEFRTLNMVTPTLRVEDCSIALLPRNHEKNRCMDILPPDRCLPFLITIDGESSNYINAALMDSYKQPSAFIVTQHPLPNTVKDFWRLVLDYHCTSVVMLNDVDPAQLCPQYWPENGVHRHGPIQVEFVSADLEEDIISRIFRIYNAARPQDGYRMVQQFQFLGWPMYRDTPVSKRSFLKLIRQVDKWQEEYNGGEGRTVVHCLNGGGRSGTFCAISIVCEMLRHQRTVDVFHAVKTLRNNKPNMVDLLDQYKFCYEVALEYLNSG
T6 sequence (P03772 whole entry): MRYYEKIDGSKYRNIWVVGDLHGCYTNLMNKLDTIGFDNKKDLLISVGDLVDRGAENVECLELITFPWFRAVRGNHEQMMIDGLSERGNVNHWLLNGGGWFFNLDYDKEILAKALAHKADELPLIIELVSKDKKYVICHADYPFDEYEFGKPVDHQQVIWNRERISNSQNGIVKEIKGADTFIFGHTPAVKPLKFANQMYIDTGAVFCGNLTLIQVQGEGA
T9 sequence (P08575 26-1306): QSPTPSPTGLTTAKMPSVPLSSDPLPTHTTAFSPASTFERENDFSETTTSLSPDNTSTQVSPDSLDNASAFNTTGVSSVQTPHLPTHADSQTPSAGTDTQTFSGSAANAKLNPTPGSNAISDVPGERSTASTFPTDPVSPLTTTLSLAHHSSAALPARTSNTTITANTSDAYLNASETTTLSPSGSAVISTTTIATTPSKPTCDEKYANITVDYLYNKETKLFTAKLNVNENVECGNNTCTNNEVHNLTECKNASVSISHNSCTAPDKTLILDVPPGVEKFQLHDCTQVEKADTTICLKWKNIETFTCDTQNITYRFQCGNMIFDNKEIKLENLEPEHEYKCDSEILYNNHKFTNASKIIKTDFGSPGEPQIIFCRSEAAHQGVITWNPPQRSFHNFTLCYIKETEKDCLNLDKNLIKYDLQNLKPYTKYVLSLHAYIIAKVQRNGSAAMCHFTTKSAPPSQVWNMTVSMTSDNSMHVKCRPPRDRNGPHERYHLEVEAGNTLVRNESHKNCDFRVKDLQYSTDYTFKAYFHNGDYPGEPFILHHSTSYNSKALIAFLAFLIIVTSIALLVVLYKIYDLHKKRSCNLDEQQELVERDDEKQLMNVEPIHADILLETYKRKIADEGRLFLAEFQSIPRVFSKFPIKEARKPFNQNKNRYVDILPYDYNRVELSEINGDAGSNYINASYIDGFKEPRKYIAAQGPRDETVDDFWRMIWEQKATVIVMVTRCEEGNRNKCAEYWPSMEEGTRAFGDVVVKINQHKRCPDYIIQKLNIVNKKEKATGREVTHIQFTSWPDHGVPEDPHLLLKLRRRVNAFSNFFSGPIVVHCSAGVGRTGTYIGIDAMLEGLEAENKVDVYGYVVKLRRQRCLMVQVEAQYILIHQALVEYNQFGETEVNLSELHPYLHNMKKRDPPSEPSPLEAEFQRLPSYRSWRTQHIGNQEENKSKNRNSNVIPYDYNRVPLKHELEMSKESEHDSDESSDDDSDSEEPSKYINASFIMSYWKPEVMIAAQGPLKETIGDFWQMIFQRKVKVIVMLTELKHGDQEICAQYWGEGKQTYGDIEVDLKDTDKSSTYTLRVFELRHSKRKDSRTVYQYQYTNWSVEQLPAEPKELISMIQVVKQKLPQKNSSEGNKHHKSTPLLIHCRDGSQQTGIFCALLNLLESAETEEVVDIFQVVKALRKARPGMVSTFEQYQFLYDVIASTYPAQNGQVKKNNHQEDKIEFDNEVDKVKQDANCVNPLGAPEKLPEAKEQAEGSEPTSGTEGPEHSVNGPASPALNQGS
T4 sequence (P51452 whole entry): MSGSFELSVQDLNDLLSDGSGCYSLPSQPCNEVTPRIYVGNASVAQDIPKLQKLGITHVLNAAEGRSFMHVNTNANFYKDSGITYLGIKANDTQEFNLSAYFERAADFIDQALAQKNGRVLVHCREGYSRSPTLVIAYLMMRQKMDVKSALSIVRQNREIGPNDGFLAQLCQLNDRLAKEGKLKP

Row | SMILES | % Phosphatase Activity (compared to DMSO) PRL-1 (recombinant PRL-1) [%] | cell cycle (EdU staining) (HCT116 cells [1]) | Percent Phosphatase Activity (compared to DMSO) (TCPTP) [%] | mode of inhibition (Lineweaver-Burke analysis) (recombinant PRL-3) | Percent Phosphatase Activity (compared to DMSO) (VHR) [%] | Percent Phosphatase Activity (compared to DMSO) (PP2A) [%] | Percent Phosphatase Activity (compared to DMSO) (PTPMEG) [%] | Percent Phosphatase Activity (compared to DMSO) (Lambda PP) [%] | Percent Phosphatase Activity (compared to DMSO) (PTPMEG2) [%] | Percent Phosphatase Activity (compared to DMSO) (CD45) [%] | Percent Phosphatase Activity (compared to DMSO) (PTPRM) [%] | Percent Phosphatase Activity (compared to DMSO) (ACP1 (LMPTP-B)) [%] | further results
1 | CCOc1nc2cccc(C(=O)O)c2n1Cc1ccc(-c2ccccc2-c2nnn[nH]2)cc1 [Candesartan] | 106 | did not significantly impact | 128 | non-competitive inhibitors | 87 | 110 | 109 | 107 | 97 | 100 | 107 | 113 | % Phosphatase Activity (compared to DMSO) PRL-1 (recombinant PRL-1; [3]): 6.33%; IC50 (recombinant PRL-1; […] protein): 69 ± 8 µM; apoptosis (AnnexinV plus propidium iodide) (SW480 cells): did not significantly impact; % Phosphatase Activity (compared to DMSO) PRL-3 (recombinant PRL-3): 82%; % Phosphatase Activity (compared to DMSO) PRL-3 (recombinant PRL-3; [3]): -3.55%; IC50 (recombinant PRL-3; […] protein): 28 ± 4 µM; apoptosis (AnnexinV plus propidium iodide) (HEK293T cells): did not significantly impact; Percent Phosphatase Activity (compared to DMSO) (Yoph): 112%; apoptosis (AnnexinV plus propidium iodide) (HCT116 cells [2]): did not significantly impact
2 | CC(C)=CCC/C(C)=C/CC/C(C)=C/CSc1ccccc1C(=O)O [Salirasib] | 26 | did not significantly impact | 118 | non-competitive inhibitors | 97 | 107 | 107 | 112 | 102 | 102 | 111 | 106 | IC50 (recombinant PRL-1; 2.5 µM protein): 53 ± 5 µM; IC50 (recombinant PRL-3; 2.5 µM protein): 27 ± 3 µM
